Experimental data reported in patent publication US4550118A, “Heterocyclic compounds” (Ikeda Mohando Co., Ltd., priority 1982, dated 1985).

Columns and labels:
[1] = biological target: T1, histamine H2 receptor in atria (Cavia porcellus, UniProt P47747); test: Histamine H2 receptor inhibition effect by isolated guinea pig right atrium preparation (negative chronotropic effect); type: cell-based, Male Hartley Guinea Pig; settings: 5×10^-6 mol sample 3 minutes prior to histamine, mean of five; for Kb: read-out: inhibitory effect of histamine H2 receptor in atria (pA2 value) (converted)
T1 construct: right atrium was isolated; from tissue; host or cells: isolated right atrium of male Hartley guinea pig
T1 sequence (P47747 whole entry): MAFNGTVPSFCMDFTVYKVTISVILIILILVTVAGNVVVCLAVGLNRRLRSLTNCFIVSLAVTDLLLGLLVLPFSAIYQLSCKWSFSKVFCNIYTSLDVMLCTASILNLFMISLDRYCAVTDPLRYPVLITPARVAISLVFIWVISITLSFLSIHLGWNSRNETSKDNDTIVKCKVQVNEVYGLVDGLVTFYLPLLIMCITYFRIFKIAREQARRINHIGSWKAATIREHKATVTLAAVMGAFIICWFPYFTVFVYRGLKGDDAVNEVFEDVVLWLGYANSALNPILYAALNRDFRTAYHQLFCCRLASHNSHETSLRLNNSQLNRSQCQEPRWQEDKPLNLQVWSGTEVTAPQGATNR
Description: (B) Measurement of Histamine H2 Receptor Inhibition Effect by Isolated Guinea Pig Right Atrium Preparation
Male Hartley Guinea Pig weighing around 400 g was sacrified by decapitation, and right atrium was isolated. The right atrium was suspended in an organ bath (50 ml) containing modified Ringer solution. Under application of a tensile load of 1 g, the heart rate was recorded by means of a polygraph. Histamine was applied cumulatively from 1×10^-7 mol to 3×10^-4 mol and a cumulative dosage response curve was drawn. Then, 5×10^-6 mol of the sample was administered 3 minutes prios to histamine application. The negative logarithmic value (pA2) of the specimen molarity required for shifting the curve to the right to double concentration was calculated.

[2] = test system: acid secretion in pylorus-ligated rats; test: Anti-secretory effect (histamine-stimulated gastric acid secretion) in pylorus-ligated rat; type: in vivo, male wistar rats; settings: 30 min before histamine 3 mg/kg s.c., ** at 1% vs control; for inhibition in vivo at 2 mg/kg: Rattus norvegicus, sc, 3 h, 2 mg/kg s.c., n=5, * significant at 5%, read-out: inhibitory effect of acid secretion (%) at 2 mg/kg s.c.
Description: (A) Anti-secretory Effect in Pylorus-ligated Rat
After 24 hr fasting, male wistar rats weighing about 160 g were anesthetized by intraperitoreal injection of urethans 1.2 g/kg. Then, after ligating the pylorus and the esophagus, the proventriculus was incised and a double polyethylene cannula was inserted. The gastric wall was washed out with 5 ml of physiological saline every 30 minutes and the amount of acid contained in the saline after washing was measured by titration. After measuring the basal acid secretion of the pylorus ligated rats three times, the compounds of the invention, 2 mg/kg, were administered subcutaneously and, 30 minutes thereafter, histamine 3 mg/kg, was administered also subcutaneously. Then, the amounts of acid secretion were measured for 3 hours. […] Then, an inhibition rate was calculated in accordance with the following formula, in relation to the increment values measured for the control group. [formula]
One group included five examples.

Row | Compound | inhibitory effect of histamine H2 receptor in atria (pA2 value) [1] | inhibitory effect of acid secretion (%) at 2 mg/kg s.c. ([2]; n=5, * significant at 5%) [%] | Kb [1] [nM] | inhibition in vivo at 2 mg/kg [2] [%]
1 | 1-methyl-3-pyridylideneimino-5-[2-<5-(2-dimethylaminomethylbenzimidazolyl)methylthio>ethyl]-1H-1,2,4-triazole-5-amine [Example 100] | 5.75 | 72 |  | 
2 | CNC(=NC#N)NCCCCOc1ccc2[nH]c(CN(C)C)nc2c1 [Example 2, N-cyano-N'-methyl-N"-[4-<5-(2-dimethylaminomethylbenzimidazolyl)oxy>butyl]guanidine] |  |  | 1510 | 75
3 | CNC(=NC#N)NCCCOc1ccc2[nH]c(CN3CCCC3)nc2c1 [Example 3] |  |  | 1170 | 54
4 | CNC(=NC#N)NCCCOc1ccc2[nH]c(CN3CCCCC3)nc2c1 [Example 5, N-cyano-N'-methyl-N"-{3-[5-<2-(1-piperidinomethyl)benzimidazolyl>oxy]propyl}guanidine] |  |  | 1380 | 65
5 | CNC(=C[N+](=O)[O-])NCCOc1ccc2[nH]c(CN3CCCC3)nc2c1 [Example 25, 1-nitro-2-methylamino-2-[2-<5-(2-(1-pyrrolidinomethyl)benzimidazolyl)oxy>ethylamino]ethylene] |  |  | 631 | 99
6 | CNC(=C[N+](=O)[O-])NCCCOc1ccc2[nH]c(CN3CCCC3)nc2c1 [Example 28, 1-nitro-2-methylamino-2-[3-<5-(2-(1-pyrrolidinomethyl)benzimidazolyl)oxy>propylamino]ethylene] |  |  | 2450 | 64
7 | CNC(=C[N+](=O)[O-])NCCCCOc1ccc2[nH]c(CN3CCCCC3)nc2c1 [Example 30, 1-nitro-2-methylamino-2-{4-[5-<2-(1-piperidinomethyl)benzimidazolyl>oxy]butylamino}ethylene] |  |  | 1380 | 78
8 | CN(C)Cc1nc2cc(CSCCNC(N)=NC#N)ccc2[nH]1 [Example 34, N-cyano-N'-[2-<5-(2-dimethylaminomethylbenzimidazolyl)methylthio>ethyl]guanidine] |  |  | 832 | 52
9 | CNC(=NC#N)NCCCSCc1ccc2[nH]c(CN(C)C)nc2c1 [Example 37, N-cyano-N'-methyl-N"-[3-<5-(2-dimethylaminomethylbenzimidazolyl)methylthio>propyl]guanidine] |  |  | 1660 | 38
10 | CNC(=C[N+](=O)[O-])NCCSCc1ccc2[nH]c(CN(C)C)nc2c1 [Example 42, 1-nitro-2-methylamino-2-[2-<5-(2-dimethylaminomethylbenzimidazolyl)methylthio>ethylamino]ethylene] |  |  | 1450 | 93
11 | C#CCNC(=C[N+](=O)[O-])NCCSCc1ccc2[nH]c(CN(C)C)nc2c1 [Example 44, 1-nitro-2-propargylamino-2-[2-<5-(2-dimethylaminomethylbenzimidazolyl)methylthio>ethylamino]ethylene] |  |  | 631 | 57
12 | CN(C)Cc1nc2cc(CSCCNC(N)=NS(=O)(=O)c3ccccc3)ccc2[nH]1 [Example 46, N-benzenesulfonyl-N'-[2-<5-(2-dimethylaminomethylbenzimidazolyl)methylthio>ethyl]guanidine] |  |  | 1170 | 72
13 | O=c1ccnc(NCCCOc2ccc3[nH]c(CN4CCCCC4)nc3c2)[nH]1 [Example 59, 2-[3-<5-(2-(1-piperidinomethyl)benzimidazolyl)oxy>propylamino]-4-pyrimidone] |  |  | 891 | 74
14 | CN(C)Cc1nc2cc(OCCCNc3ncc(CN(C)C)c(=O)[nH]3)ccc2[nH]1 [Example 60, 5-dimethylaminomethyl-[3-<5-(2-dimethylaminomethylbenzimidazolyl)oxy>propylamino]-4-pyrimidone] |  |  | 3550 | 56
15 | CN(C)Cc1cnc(NCCCOc2ccc3[nH]c(CN4CCCCC4)nc3c2)[nH]c1=O [Example 61, 5-dimethylaminomethyl-2-[3-<5-(2-(1-piperidinomethyl)benzimidazolyl)oxy>propylamino]-4-pyrimidone] |  |  | 3090 | 64
16 | CN(C)Cc1nc2cc(OCCCNc3ncc(Cc4ccc5c(c4)OCO5)c(=O)[nH]3)ccc2[nH]1 [Example 62, 5-[5-(1,3-benzodioxolyl)methyl]-2-[3-<5-(2-dimethylaminomethylbenzimidazolyl)oxy>propylamino]-4-pyrimidone] |  |  | 631 | 84
17 | O=c1[nH]c(NCCCOc2ccc3[nH]c(CN4CCCC4)nc3c2)ncc1Cc1ccc2c(c1)OCO2 [Example 63, 5-[5-(1,3-benzodioxolyl)methyl]-2-[3-<5-(2-(1-pyrrolidinomethyl)benzimidazolyl)oxy>propylamino]-4-pyrimidone] |  |  | 4070 | 78
18 | O=c1[nH]c(NCCCOc2ccc3[nH]c(CN4CCCCC4)nc3c2)ncc1Cc1ccc2c(c1)OCO2 [Example 64, 5-[5-(1,3-benzodioxolyl)methyl]-2-[3-<5-(2-(1-piperidinomethyl)benzimidazolyl)oxy>propylamino]-4-pyrimidone] |  |  | 5890 | 76
19 | O=c1[nH]c(NCCCOc2ccc3[nH]c(CN4CCCC4)nc3c2)ncc1Cc1cccnc1 [Example 67, 2-{3-[5-<2-(1-pyrrolidinomethyl)benzimidazolyl>oxy]propylamino}-5-(3-pyridylmethyl)-4-pyrimidone] |  |  | 4680 | 93
20 | O=c1[nH]c(NCCCOc2ccc3[nH]c(CN4CCCCC4)nc3c2)ncc1Cc1cccnc1 [Example 68, 2-{3-[5-<2-(1-piperidinomethyl)benzimidazolyl>oxy]propylamino}-5-(3-pyridylmethyl)-4-pyrimidone] |  |  | 9550 | 90
21 | CN(C)Cc1nc2cc(CSCCNc3nccc(=O)[nH]3)ccc2[nH]1 [Example 72, 2-[2-<5-(2-dimethyaminomethylbenzimidazolyl)methylthio>ethylamino]-4-pyrimidone] |  |  | 851 | 53
22 | CN(C)Cc1nc2cc(CSCCNc3ncc(CN(C)C)c(=O)[nH]3)ccc2[nH]1 [Example 73, 2-[2-<5-(2-dimethylaminomethylbenzimidazolyl)methylthio>ethylamino]-5-dimethylaminomethyl-4-pyrimidone] |  |  | 631 | 91
23 | CN(C)Cc1nc2cc(CSCCNc3ncc(Cc4cccnc4)c(=O)[nH]3)ccc2[nH]1 [Example 76, 2-[2-<5-(2-dimethylaminomethylbenzimidazolyl)methylthio>ethylamino]-5-(3-pyridylmethyl)-4-pyrimidone] |  |  | 1230 | 102
24 | CN(C)Cc1nc2cc(OCCCNc3nnc(Cc4cccnc4)c(=O)[nH]3)ccc2[nH]1 [Example 83, 3-[3-<5-(2-dimethylaminomethylbenzimidazolyl)oxy>propylamino]-6-(3-pyridylmethyl)-1,2,4-triazine-5-one] |  |  | 4070 | 78
25 | O=c1[nH]c(NCCCOc2ccc3[nH]c(CN4CCCCC4)nc3c2)nnc1Cc1cccnc1 [Example 85, 3-{3-[5-<2-(1-piperidinomethyl)benzimidazolyl>oxy]propylamino}-6-(3-pyridylmethyl)-1,2,4-triazine-5-one] |  |  | 1950 | 46
26 | CN(C)Cc1nc2cc(CSCCNc3nnc(Cc4cccnc4)c(=O)[nH]3)ccc2[nH]1 [Example 87, 3-[2-<5-(2-dimethylaminomethylbenzimidazolyl)methylthio>ethylamino]-6-(3-pyridylmethyl)-1,2,4-triazine-5-one] |  |  | 603 | 84
27 | CN(C)Cc1nc2cc(OCCCNc3nc(N)nn3C)ccc2[nH]1 [Example 91, 1-methyl-5-[3-<5-(2-dimethylaminomethylbenzimidazolyl)oxy>propyl]-1H-1,2,4-triazole-3,5-diamine] |  |  | 6460 | 81
28 | CN(C)Cc1nc2cc(OCCCCNc3nc(N)nn3C)ccc2[nH]1 [Example 92, 1-methyl-5-[4-<5-(2-dimethylaminomethylbenzimidazolyl)oxy>butyl]-1H-1,2,4-triazole-3,5-diamine] |  |  | 5500 | 92
29 | CN(C)Cc1nc2cc(CSCCNc3nc(N)n[nH]3)ccc2[nH]1 [Example 96, 5-[2-<5-(2-dimethylaminomethylbenzimidazolyl)methylthio>ethyl]-1H-1,2,4-triazole-3,5-diamine] |  |  | 933 | 
30 | Nc1n[s+]([O-])nc1NCCCOc1ccc2[nH]c(CN3CCCCC3)nc2c1 (centres unmarked) [Example 101] |  |  | 2950 | 97
